Key:
physchem = settings: FaSSIF buffer, pH 6.5, fassif, thermodynamic from solid
Protocol: Solubility of Solid Compounds in Fasted Simulated Intestinal Fluid
The solubility of solid compounds in Fasted Simulated Intestinal Fluid (FaSSIF) was determined at pH 6.5 after 4 hour equilibration at room temperature (using procedures described in Sou, T.; Bergström, C. A. S. Automated assays for thermodynamic (equilibrium) solubility determination. Drug Discovery Today: Technologies 2018, 27, 11-19). 1 ml of FaSSIF buffer (3 mM Sodium taurocholate, 0.75 mM lecithin in sodium phosphate buffer at pH6.5) was added to manually weighed 1 mg of solid compound in a 4 ml vial. The resulting suspension was shaken at 900 rpm for 4 hours at room temperature and then transferred to a Multiscreen HTS, 96-well solubility filter plate to separate the residual solid and the filtrate. Quantification of the compound concentration in the filtrate was performed by HPLC-UV using single point calibration of a known concentration of the compound in DMSO. […] The dynamic range of the assay was 1-1000 μg/ml.

[1] = Drug exposure in blood and tumor of mice bearing SKM-1 xenografts (PK/PD study); format: in vivo, mouse; settings: 22, 67 or 200 mg/kg BID PO; blood and tumor two hours following the 20th dose
Protocol: SKM-1 cells (3.8×10^6) suspended in 50% Matrigel (BD Biosciences)/50% Dulbecco's phosphate-buffered saline (DPBS) were implanted in 8-11 week old female NOD.CB17-Prkdc1NCrCrl mice. Tumors were measured with digital calipers, and stratified block randomized according to tumor size (P value >0.9085) into treatment groups with average tumor volumes of 219 or 1076 mm^3 for efficacy or PK/PD studies respectively. GSK4172239A was formulated weekly in Sterile water. Mice were measured twice weekly for body weight and tumor size. Dosing started on the day after randomization. Animals were dosed twice daily (BID) via oral gavage (PO) with Example 1 at 22, 67, or 200 mg/kg. […] Both samples were precipitated with acetonitrile, and concentrations of Example 4 were determined by HPLC—MS/MS (Waters Acquity uPLC, Sciex API5000). SKM-1 tumor and mouse bone marrow samples were assessed using a global DNA methylation (5-methylcytosine) LC-MS/MS assay. […] An HPLC—MS/MS method was optimized to quantify 2′-deoxycytidine and 5-methyl-2′-deoxycytidine. […] Concentrations of 2′-deoxycytidine and 5-methyl-2′-deoxycytidine were determined using standard curves generated from pure 2′-deoxycytidine (Sigma-Aldrich) and 5-methyl-2′-deoxycytidine (Santa Cruz Biotechnology). […]
Example 1 was evaluated in immunocompromised mice bearing subcutaneous SKM-1 human AML (acute myeloid leukemia) xenografts. […]

[2] = system: global DNA methylation (5-methylcytosine); test: Global DNA methylation (5-methylcytosine) LC-MS/MS assay in SKM-1 tumor and mouse bone marrow; format: in vivo
Protocol: (§1) SKM-1 cells (3.8×10^6) suspended in 50% Matrigel (BD Biosciences)/50% Dulbecco's phosphate-buffered saline (DPBS) were implanted in 8-11 week old female NOD.CB17-Prkdc1NCrCrl mice. Tumors were measured with digital calipers, and stratified block randomized according to tumor size (P value >0.9085) into treatment groups with average tumor volumes of 219 or 1076 mm^3 for efficacy or PK/PD studies respectively. GSK4172239A was formulated weekly in Sterile water. Mice were measured twice weekly for body weight and tumor size. Dosing started on the day after randomization. Animals were dosed twice daily (BID) via oral gavage (PO) with Example 1 at 22, 67, or 200 mg/kg. A maximal tumor burden of 2,500 mm^3 for two consecutive measurements was not exceeded during the studies. For the PK/PD study, tumor, blood, and bone marrow were collected two hours following the 20th dose (10 days). For PK, blood was mixed 50:50 with water while tumor was homogenized (Omni hand-held homogenizer) in sterile water at a 1:4 dilution. Both samples were precipitated with acetonitrile, and concentrations of Example 4 were determined by HPLC—MS/MS (Waters Acquity uPLC, Sciex API5000). SKM-1 tumor and mouse bone marrow samples were assessed using a global DNA methylation (5-methylcytosine) LC-MS/MS assay. […] An HPLC—MS/MS method was optimized to quantify 2′-deoxycytidine and 5-methyl-2′-deoxycytidine. […] Concentrations of 2′-deoxycytidine and 5-methyl-2′-deoxycytidine were determined using standard curves generated from pure 2′-deoxycytidine (Sigma-Aldrich) and 5-methyl-2′-deoxycytidine (Santa Cruz Biotechnology). […]
(§2) Example 1 was evaluated in immunocompromised mice bearing subcutaneous SKM-1 human AML (acute myeloid leukemia) xenografts. […] In addition, the mechanistic consequence of inhibiting DNMT1, a decrease in DNA methylation, was assessed globally using a LC-MS/MS-based 5-methylcytosine assay. […] In a subsequent study, to examine anti-tumor efficacy, tumor volume was measured (n=10 animals per group) twice weekly for 4 weeks while on treatment.

Full-length human DNMT1 = Full-length human DNMT1 (Homo sapiens (Human), UniProt P26358); test: DNMT1 Scintillation Proximity Assay (SPA) - Assay A; format: biochemical; settings: footnote a: DNMT1 full length
Protocol: DNMT1 Scintillation Proximity Assay (SPA)—Assay A (Full-Length Human DNMT1)
This assay used Scintillation Proximity technology in a signal increase format to evaluate the potency of compounds. Full-length human DNMT1, hemi-methylated DNA duplex*, and tritiated SAM were utilized to monitor activity. Assay plate creation consisted of the following parameters: 500 nL of an 11 pt, 3-fold serial dilution of compound was stamped into a 96 well Costar plate (#3884). Assay buffer mix was made on the day of assay consisting of: 20 mM Tris pH 7.5, 1 mM DTT, 1 mM EDTA, and 5% glycerol. A 2× enzyme mix was then prepared consisting of 30 nM DNMT1 protein (full length human DNMT, made in house) in assay buffer. The 2× substrate mix was made last, and consisted of 160 nM 40mer hemi-methylated DNA*, 0.48 μM ^3H-SAM, and 2.92 μM cold SAM in assay buffer (^3H-SAM is added last). The quench (1 mM SAH) was made in bulk and frozen at −20 until the time of use. Ten uL of the 2× substrate mix was added to the entire plate using a multichannel electronic pipette. Plate was shaken for at least 10s between additions to ensure mixing. Next, 20 uL of 2× quench mix was added to column 12 using a multichannel pipette (shake plate). Using a multichannel electronic pipette, 10 uL of 2× enzyme mix was added to the full plate starting with column […] (column 12 last to avoid pre-quench carryover). Plates were incubated on the shaker for 30 minutes with the plate covered. At the end of the incubation period, 20 uL of quench mix were added to all wells except column 12 (shake plate) followed by the addition of 20 uL of 3 mg/mL PerkinElmer PEI PVT SPA Beads (Cat. #RPNQ0097) diluted in DNAse free water and allowed to shake for at least 30 minutes. Plates were sealed with a clear seal and centrifuged at 500 rpm for 1 min. Plates were read on a MicroBeta (Perkin Elmer, read for ^3H (1 min/well).
Microsoft Excel was used to analyze the data up to Vi/Vo and GraFit was used to fit the data. Responses were normalized to the uninhibited (DMSO) and pre-quenched controls within each plate. Dose-response curves were analyzed using a three-parameter logistic fit with Ymin constrained to 0 and results were expressed as IC50 values.
Final assay conditions: 20 mM Tris (Hampton Research—HR-937-06), pH 7.5, 1 mM DTT (Invitrogen—P2325), 1 mM EDTA (Invitrogen—AM9260G), 5% Glycerol (Teknova—G1796), 0.02% Pluronic F127 (Life Technologies—P6866), 15 nM DNMT1 (full length human DNMT1—GSK made in-house), 240 nM ^3H-SAM (PerkinElmer—NET155H001MC), 1460 nM cold SAM (New England Biolabs—B9003S) and 80 nM 40-mer hemi-methylated DNA Oligonucleotide (Integrated DNA Technologies—custom), 1 mM SAH (Sigma A9384), and 1 mg/mL PEI PVT SPA Beads (Perkin Elmer RPNQ0097) resuspended in water.

[3] = system: SKM-1 human AML (acute myeloid leukemia) xenografts; test: Anti-tumor efficacy in subcutaneous SKM-1 human AML xenografts; format: in vivo, mouse
Protocol: as §1, §2

Chain of Full-length human DNMT1 (P26358 whole entry): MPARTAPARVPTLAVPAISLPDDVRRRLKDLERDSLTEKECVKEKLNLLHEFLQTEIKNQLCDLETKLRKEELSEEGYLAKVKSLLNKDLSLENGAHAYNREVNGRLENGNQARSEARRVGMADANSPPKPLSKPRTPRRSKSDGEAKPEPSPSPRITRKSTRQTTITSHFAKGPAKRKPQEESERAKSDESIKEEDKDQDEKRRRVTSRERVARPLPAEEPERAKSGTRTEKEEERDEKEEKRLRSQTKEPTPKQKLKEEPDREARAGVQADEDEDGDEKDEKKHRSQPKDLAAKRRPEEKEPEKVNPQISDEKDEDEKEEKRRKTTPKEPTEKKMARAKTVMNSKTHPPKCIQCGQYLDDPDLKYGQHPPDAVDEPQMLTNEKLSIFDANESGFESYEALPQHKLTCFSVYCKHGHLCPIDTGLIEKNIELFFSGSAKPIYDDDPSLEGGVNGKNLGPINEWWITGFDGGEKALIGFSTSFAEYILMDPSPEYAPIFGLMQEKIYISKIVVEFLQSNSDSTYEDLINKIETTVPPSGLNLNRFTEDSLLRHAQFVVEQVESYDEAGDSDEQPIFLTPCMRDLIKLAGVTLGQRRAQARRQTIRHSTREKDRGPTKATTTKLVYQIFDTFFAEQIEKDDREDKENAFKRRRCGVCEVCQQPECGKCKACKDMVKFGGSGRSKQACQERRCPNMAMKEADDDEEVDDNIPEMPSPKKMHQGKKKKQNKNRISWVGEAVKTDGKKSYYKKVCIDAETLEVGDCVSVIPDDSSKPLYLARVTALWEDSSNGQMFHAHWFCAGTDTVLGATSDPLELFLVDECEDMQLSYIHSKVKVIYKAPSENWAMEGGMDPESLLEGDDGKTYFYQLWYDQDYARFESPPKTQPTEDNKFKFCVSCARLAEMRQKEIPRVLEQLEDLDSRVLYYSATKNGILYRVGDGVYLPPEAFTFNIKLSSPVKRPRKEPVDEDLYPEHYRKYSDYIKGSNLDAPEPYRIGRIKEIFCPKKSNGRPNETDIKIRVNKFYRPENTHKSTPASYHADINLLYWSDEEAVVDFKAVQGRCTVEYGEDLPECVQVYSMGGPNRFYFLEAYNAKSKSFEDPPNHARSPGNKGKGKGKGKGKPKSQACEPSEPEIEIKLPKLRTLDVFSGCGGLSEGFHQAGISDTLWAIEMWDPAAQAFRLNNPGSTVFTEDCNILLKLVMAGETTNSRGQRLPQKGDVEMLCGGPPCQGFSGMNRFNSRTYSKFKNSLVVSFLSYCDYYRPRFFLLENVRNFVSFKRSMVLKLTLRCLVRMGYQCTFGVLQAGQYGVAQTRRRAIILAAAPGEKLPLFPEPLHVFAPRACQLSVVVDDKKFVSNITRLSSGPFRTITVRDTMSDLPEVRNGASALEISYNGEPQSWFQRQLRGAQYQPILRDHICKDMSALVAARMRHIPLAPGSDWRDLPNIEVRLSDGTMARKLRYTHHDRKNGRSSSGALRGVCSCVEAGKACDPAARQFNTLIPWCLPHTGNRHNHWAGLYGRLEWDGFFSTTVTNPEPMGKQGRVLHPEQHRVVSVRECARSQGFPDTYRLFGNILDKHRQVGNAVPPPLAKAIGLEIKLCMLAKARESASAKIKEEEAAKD

## CCc1c(C#N)c(S[C@@H](C(=O)NP(=O)(O)O)c2ccc(OS(C)(=O)=O)cc2)nc(N(C)C)c1C#N [Example 1, (R)-(2-((3,5-dicyano-6-(dimethylamino)-4-ethylpyridin-2-yl)thio)-2-(4-((methylsulfonyl)oxy)phenyl)acetyl)phosphoramidic acid]
physchem
  solubility at 4 h: > 1000 µg/mL
[1]
  drug exposure (measured as the racemic active moiety Example 4): dose-proportional and roughly equivalent in blood and tumor
[2]; 22, 67 or 200 mg/kg BID PO, 10 days
  global DNA methylation in comparison to vehicle: reduced at all doses
[2]; SKM-1 tumor, 200 mg/kg BID PO, two hours following the 20th dose (10 days)
  maximal change (reduction) in global DNA methylation in the tumor vs vehicle: 49%
[2]; mouse bone marrow, 200 mg/kg BID PO, two hours following the 20th dose (10 days)
  maximal change (reduction) in global DNA methylation in the bone marrow vs vehicle: 47%
Full-length human DNMT1
  IC50: 16.1 µM
[3]; 22 mg/kg BID PO, vs vehicle at day 22
  tumor growth inhibition: 35%
[3]; 200 mg/kg BID PO, vs vehicle at day 22
  tumor response: marked regression
[3]; 22, 67 or 200 mg/kg BID PO, measured twice weekly for 4 weeks
  tumor volume: dose-dependent reduction

Reference: US11771711B2, “Substituted pyridines as DNMT1 inhibitors” (GlaxoSmithKline Intellectual Property Development Limited, priority 2021, dated 2023)
